Test results from patent publication US8802597B2, “Herbicidal pyrimidines” (E I du Pont de Nemours and Company, priority 2003, dated 2014).

Columns and labels:
Experiment in all cases: Test G pre/postemergence
Type in all cases: in vivo
[1] = system: broadleaf signalgrass (Brachiaria platyphylla)
Source text: (§1) Seeds or nutlets of plant species selected from bermudagrass (Cynodon dactylon), Surinam grass (Brachiaria decumbens), large crabgrass (Digitaria sanguinalis), green foxtail (Setaria viridis), goosegrass (Eleusine indica), johnsongrass (Sorghum halepense), kochia (Kochia scoparia), pitted morningglory (Ipomoea lacunosa), purple nutsedge (Cyperus rotundus), common ragweed (Ambrosia elatior), black mustard (Brassica nigra), guineagrass (Panicum maximum), dallisgrass (Paspalum dilatatum), barnyardgrass (Echinochloa crus-galli), southern sandbur (Cenchrus echinatus), common sowthistle (Sonchus oleraceous), prickly sida (Sida spinosa), Italian ryegrass (Lolium multiflorum), common purslane (Portulaca oleracea), broadleaf signalgrass (Brachiaria platyphylla), common groundsel (Senecio vulgaris), common chickweed (Stellaria media), tropical spiderwort (Commelina benghalensis), annual bluegrass (Poa annua), downy bromegrass (Bromus tectorum), itchgrass (Rottboellia cochinchinensis), quackgrass (Elytrigia repens), Canada horseweed (Conyza canadensis), field bindweed (Convolvulus arvensis), spanishneedles (Bidens bipinnata), common mallow (Malva sylvestris), and Russian thistle (Salsola kali) were planted and treated preemergence with test chemicals formulated in a non-phytotoxic solvent mixture which included a surfactant.
(§2) At the same time, plants selected from these weed species were treated with postemergence applications of some of the test chemicals formulated in the same manner. Plants ranged in height from 2 to 18 cm (1- to 4-leaf stage) for postemergence treatments. Treated plants and controls were maintained in a greenhouse for 12 to 21 days, after which time all species were compared to controls and visually evaluated.
(§3) Plant response ratings, summarized in Table G, are based on a scale of 0 to 100 where 0 is no effect and 100 is complete control. A dash (-) response means no test result.

[2] = system: quackgrass (Elytrigia repens)
Source text: as §1, §2, §3

[3] = system: common mallow (Malva sylvestris)
Source text: as §1, §2, §3

[4] = system: large crabgrass (Digitaria sanguinalis)
Source text: as §1, §2, §3

[5] = Postemergence, 250 g ai/ha, scale 0 to 100
[6] = Postemergence, 16 g ai/ha, scale 0 to 100
[7] = Postemergence, 31 g ai/ha, scale 0 to 100
[8] = Postemergence, 62 g ai/ha, scale 0 to 100
[9] = Postemergence, 125 g ai/ha, scale 0 to 100
[10] = Preemergence, 16 g ai/ha, scale 0-100
[11] = Preemergence, 31 g ai/ha, scale 0-100
[12] = Preemergence, 62 g ai/ha, scale 0-100
[13] = Preemergence, 125 g ai/ha, scale 0-100
[14] = Preemergence, 250 g ai/ha, scale 0-100

## Nc1nc(C2CC2)nc(C(=O)[O-])c1Cl.[Na+] [Compound 77, 6-amino-5-chloro-2-cyclopropyl-4-pyrimidinecarboxylic acid monosodium salt]
[1]; [5]
  Plant response rating, Signalgrass: 70
[1]; [6]
  Plant response rating, Signalgrass: 0
[1]; [7]
  Plant response rating, Signalgrass: 30
[1]; [8]
  Plant response rating, Signalgrass: 50
[1]; [9]
  Plant response rating, Signalgrass: 60
[1]; [10]
  Plant response rating, Signalgrass: 5
[1]; [11]
  Plant response rating, Signalgrass: 10
[1]; [12]
  Plant response rating, Signalgrass: 75
[1]; [13]
  Plant response rating, Signalgrass: 90
[1]; [14]
  Plant response rating, Signalgrass: 95
[2]; [5]
  Plant response rating, Quackgrass: 60
[2]; [6]
  Plant response rating, Quackgrass: 0
[2]; [7]
  Plant response rating, Quackgrass: 10
[2]; [8]
  Plant response rating, Quackgrass: 40
[2]; [9]
  Plant response rating, Quackgrass: 60
[2]; [10]
  Plant response rating, Quackgrass: 0
[2]; [11]
  Plant response rating, Quackgrass: 0
[2]; [12]
  Plant response rating, Quackgrass: 10
[2]; [13]
  Plant response rating, Quackgrass: 50
[2]; [14]
  Plant response rating, Quackgrass: 80
[3]; [5]
  Plant response rating, Mallow: 95
[3]; [6]
  Plant response rating, Mallow: 65
[3]; [7]
  Plant response rating, Mallow: 75
[3]; [8]
  Plant response rating, Mallow: 80
[3]; [9]
  Plant response rating, Mallow: 85
[3]; [10]
  Plant response rating, Mallow: 30
[3]; [11]
  Plant response rating, Mallow: 40
[3]; [12]
  Plant response rating, Mallow: 50
[3]; [13]
  Plant response rating, Mallow: 80
[3]; [14]
  Plant response rating, Mallow: 80
[4]; [5]
  Plant response rating, Crabgrass, Large: 75
[4]; [6]
  Plant response rating, Crabgrass, Large: 60
[4]; [7]
  Plant response rating, Crabgrass, Large: 70
[4]; [8]
  Plant response rating, Crabgrass, Large: 75
[4]; [9]
  Plant response rating, Crabgrass, Large: 75
[4]; [10]
  Plant response rating, Crabgrass, Large: 45
[4]; [11]
  Plant response rating, Crabgrass, Large: 45
[4]; [12]
  Plant response rating, Crabgrass, Large: 80
[4]; [13]
  Plant response rating, Crabgrass, Large: 85
[4]; [14]
  Plant response rating, Crabgrass, Large: 90
